According to patent publication US20240199677A1, “GLYCOSYLTRANSFERASE INHIBITORS” (CALIFORNIA INSTITUTE OF TECHNOLOGY, priority 2018, published 2024):

Columns and labels:
Caco-2 = assay: Cytotoxicity MTT assay, Caco-2; assay type: cell-based; conditions: Homo sapiens, Caco-2; read-out: Cytotoxicity IC50 Caco-2
Protocol: (§1) Selected molecules were tested for cytotoxicity (IC50) in cancer and healthy cells via a MTT colorimetric assay.
(§2) Each cell was cultured in recommended medium by ATCC, and the IC50 data were obtained with each cell line.

Panc-1 cells [1] = assay: Cell viability assay (FIG. 5), Panc-1; assay type: cell-based; conditions: after about 3 days; 0.44 μM, 1.77 μM, and 7.08 μM
Protocol: (§3) The cytotoxic activity of 11 against AsPc-1 and Panc-1 cells was also measured through cell viability assays (FIG. 5). […] Similarly, the percentage of viable Panc-1 cells was near-zero after about 3 days in the presence of 11 (0.44 μM, 1.77 μM, and 7.08 μM).

C. perfringens = assay type: cell-based; conditions: FIG. 4
AsPc-1 cells [2] = assay: Scratch (wound healing) assay, AsPc-1; assay type: cell-based; conditions: FIG. 9, versus Gemcitabine
AsPc-1 cells [3] = assay: Synergistic assay (checkerboard), 11 and Paclitaxel; assay type: cell-based
Protocol: (§4) The FIC index was calculated according to the following equation. ΣFIC=FICA+FICB=CA/MICA+CB/MICB where MICA and MICB are MIC of drugs A and B, CA and CB are the concentrations of drugs A and B used in combination. In these interaction studies, ΣFIC of less than 0.5 represents synergistic activity.

L12210 = assay: Cytotoxicity MTT assay, L12210; assay type: cell-based; conditions: read-out: Cytotoxicity IC50 L12210
Protocol: as §1, §2

HCT 116 = assay: Cytotoxicity MTT assay, HCT 116; assay type: cell-based; conditions: Homo sapiens, HCT-116, read-out: Cytotoxicity IC50 HCT 116
Protocol: as §1, §2

Vero cells = assay: Cytotoxicity MTT assay, Vero cells; assay type: cell-based, monkey; conditions: Primates, Vero; Table 2; read-out: Vero cells IC50
Protocol: (§5) Cytotoxicity Assays. Cytotoxicity assays were performed using Vero monkey kidney (ATCC CCL-81) and HepG2 human hepatoblastoma cell (ATCC HB-8065) lines. Vero or HepG2 cells were cultured in 75 cm^2 flasks and transferred to 96-well cell culture plates using ATCC-formulated Eagle's minimum essential medium containing 10% FBS, penicillin, and streptomycin. Serially diluted aliquots of each test compound at concentrations ranging from 0.78-200 μg/mL were added to the cells. […] The plates were incubated and cytotoxic effects were determined via the MTT assay.
as §1
(§6) Cytotoxicity Assays. For Vero cells: Vero cell was cultured in Complete eagle's minimum essential growth medium (EMEM) containing L-glutamine, sodium pyruvate, minimum essential amino acids, penicillin-streptomycin and 10% fetal bovine serum. Inoculating number of cells were 400,000 cells/mL and a final 40,000 cells/well. After 72 h of exposure of molecules to this cell line at concentrations ranging from 0.78 to 200 μg/mL, the culture medium was changed to complete EMEM without phenol red before addition of yellow tetrazolium dye; MTT. Viability was assessed on the basis of cellular conversion of MTT into a purple formazan product. The absorbance of the colored formazan product was measured at 570 nm by BioTek Synergy HT Spectrophotometer. Linearity of the MTT response to the cell number was determined.

[4] = Cytotoxicity MTT assay, Vero cells; assay type: cell-based, monkey; conditions: monkey
Protocol: as §5, §1, §6

B. subtilis = assay: Antibacterial activity (FIG. 4), B. subtilis; assay type: cell-based
[5] = tested on: N-glycosylation of β-catenin; assay: Western blot, N-glycosylation of β-catenin (FIG. 6); assay type: cell-based; conditions: concentrations as low as
Panc-1 = assay: Cytotoxicity MTT assay, Panc-1; assay type: cell-based; conditions: Homo sapiens, PANC-1; read-out: Cytotoxicity IC50 Panc-1
Protocol: as §1, §2

HPAF-II = assay: Cytotoxicity MTT assay, HPAF-II; assay type: cell-based; conditions: Homo sapiens, HPAF-II; read-out: Cytotoxicity IC50 HPAF-II
Protocol: as §1, §2

MDA-MB-435S = assay: Cytotoxicity MTT assay, MDA-MB-435S; assay type: cell-based; conditions: Homo sapiens, MDA-MB-435S; read-out: Cytotoxicity IC50 MDA-MB-435S
Protocol: as §1, §2

[6] = Cytotoxicity MTT assay, HepG2; assay type: cell-based; conditions: human
sheep blood = assay: Hemolysis, sheep blood; assay type: cell-based
Hemolysis, sheep blood = assay type: cell-based; conditions: sheep, sheep blood
Panc-1 cells [7] = assay: Boyden Chamber migration assay, Panc-1; assay type: cell-based; conditions: FIG. 7, versus Gemcitabine, Taxol, Tunicamycin
AsPc-1 = assay: Cytotoxicity MTT assay, AsPc-1; assay type: cell-based; conditions: Homo sapiens, ASPC1; read-out: Cytotoxicity IC50 AsPc-1
Protocol: as §1, §2

DPAGT1 = DPAGT1 (Homo sapiens (Human), UniProt Q9H3H5); assay: DPAGT1 inhibition (FIG. 6); assay type: biochemical
DPAGT1, sequence (Q9H3H5 whole entry, looked up): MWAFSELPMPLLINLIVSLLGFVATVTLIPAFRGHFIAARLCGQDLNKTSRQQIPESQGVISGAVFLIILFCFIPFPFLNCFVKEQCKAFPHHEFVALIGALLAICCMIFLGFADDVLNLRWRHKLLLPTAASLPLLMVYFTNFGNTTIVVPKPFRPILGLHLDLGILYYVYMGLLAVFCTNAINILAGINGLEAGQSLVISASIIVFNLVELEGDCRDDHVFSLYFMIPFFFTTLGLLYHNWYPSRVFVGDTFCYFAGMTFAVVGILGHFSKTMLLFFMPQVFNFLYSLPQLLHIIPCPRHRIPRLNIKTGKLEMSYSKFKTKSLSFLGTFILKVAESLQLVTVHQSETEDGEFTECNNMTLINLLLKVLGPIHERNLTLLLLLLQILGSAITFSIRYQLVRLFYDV

AsPc-1 cells [8] = assay: Synergistic assay (checkerboard), 11 and Gemcitabine; assay type: cell-based
Protocol: as §4
These experiments were performed in the same manner as those of Example 7.

AsPc-1 cells [9] = assay: Cell viability assay (FIG. 5), AsPc-1; assay type: cell-based; conditions: after 4 days; 1.77 μM, 3.54 μM, and 14.17 μM
Protocol: as §3

[10] = Homo sapiens, ASPC1, 11 alone, AsPc-1 cells, read-out: IC50 A

## NC[C@H]1O[C@@H](O[C@H]([C@H]2O[C@@H](n3ccc(=O)[nH]c3=O)[C@H](O)[C@@H]2O)[C@H](NCCCC(=O)NCc2ccc(N3CCC(Oc4ccc(C(F)(F)F)cc4)CC3)cc2)C(N)=O)[C@H](O)[C@@H]1O [Compound 11]
Caco-2
  IC50: > 60 µM
Panc-1 cells [1]
  Percentage of viable Panc-1 cells: near-zero
C. perfringens
  Antibacterial activity against C. perfringens: displayed antibacterial activity
AsPc-1 cells [2]
  AsPc-1 cell migration, scratch assay: less AsPc-1 cell migration than Gemcitabine
AsPc-1 cells [3]; Entry 1: A 11 CA 14.2 nM + B Paclitaxel CB 0.4 nM
  Σ FIC: 0.224
AsPc-1 cells [3]; Entry 2: A 11 CA 14 nM + B Paclitaxel CB 0.88 nM
  Σ FIC: 0.16
AsPc-1 cells [3]; Entry 3: A 11 CA 14 nM + B Paclitaxel CB 7 nM
  Σ FIC: 0.27
AsPc-1 cells [3]; Entry 4: A 11 CA 220 nM + B Paclitaxel CB 40 nM
  Σ FIC: 0.224
AsPc-1 cells [3]; Entry 5: A 11 CA 110 nM + B Paclitaxel CB 88 nM
  Σ FIC: 0.114
AsPc-1 cells [3]; [10]
  IC50: 0.982 µM
AsPc-1 cells [3]; all five combinations
  Effect of combination of 11 and Taxol: synergistic effect
L12210
  IC50: > 100 µM
HCT 116
  IC50: 3.54 µM
Vero cells
  IC50: 56.8 µM
[4]
  IC50 at 72 h: > 65 µM
B. subtilis
  Antibacterial activity against B. subtilis: displayed antibacterial activity
[5]
  Lowest concentration inhibiting N-glycosylation of β-catenin: 0.39 nM
Panc-1
  IC50: < 0.098 µM
HPAF-II
  IC50: < 0.098 µM
MDA-MB-435S
  IC50: 7.09 µM
[6]
  IC50: > 60 µM
Sheep blood
  IC50: 206 µM
Hemolysis, sheep blood
  IC50: 206 µM
Panc-1 cells [7]
  Panc-1 migratory cells: fewer Panc-1 migratory cells than Gemcitabine, Taxol, and Tunicamycin
AsPc-1
  IC50: 0.95 µM
DPAGT1
  IC50: 0.26 µM
AsPc-1 cells [8]; Compound 11 0.0488281 μM + Gemcitabine 0.024414 μM
  AsPc-1 cells dead/alive: alive
AsPc-1 cells [8]; Compound 11 0.0488281 μM + Gemcitabine 0.048828 μM
  AsPc-1 cells dead/alive: alive
AsPc-1 cells [8]; Compound 11 0.0488281 μM + Gemcitabine 0.097656 μM
  AsPc-1 cells dead/alive: dead
AsPc-1 cells [8]; Compound 11 0.0488281 μM + Gemcitabine 0.195313 μM
  AsPc-1 cells dead/alive: dead
AsPc-1 cells [8]; Compound 11 0.0488281 μM + Gemcitabine 0.390625 μM
  AsPc-1 cells dead/alive: dead
AsPc-1 cells [8]; Compound 11 0.0976563 μM + Gemcitabine 0.024414 μM
  AsPc-1 cells dead/alive: alive
AsPc-1 cells [8]; Compound 11 0.0976563 μM + Gemcitabine 0.048828 μM
  AsPc-1 cells dead/alive: alive
AsPc-1 cells [8]; Compound 11 0.0976563 μM + Gemcitabine 0.097656 μM
  AsPc-1 cells dead/alive: dead
AsPc-1 cells [8]; Compound 11 0.0976563 μM + Gemcitabine 0.195313 μM
  AsPc-1 cells dead/alive: dead
AsPc-1 cells [8]; Compound 11 0.0976563 μM + Gemcitabine 0.390625 μM
  AsPc-1 cells dead/alive: dead
AsPc-1 cells [8]; Compound 11 0.1953125 μM + Gemcitabine 0.024414 μM
  AsPc-1 cells dead/alive: alive
AsPc-1 cells [8]; Compound 11 0.1953125 μM + Gemcitabine 0.048828 μM
  AsPc-1 cells dead/alive: alive
AsPc-1 cells [8]; Compound 11 0.1953125 μM + Gemcitabine 0.097656 μM
  AsPc-1 cells dead/alive: dead
AsPc-1 cells [8]; Compound 11 0.1953125 μM + Gemcitabine 0.195313 μM
  AsPc-1 cells dead/alive: dead
AsPc-1 cells [8]; Compound 11 0.1953125 μM + Gemcitabine 0.390625 μM
  AsPc-1 cells dead/alive: dead
AsPc-1 cells [8]; Compound 11 0.390625 μM + Gemcitabine 0.024414 μM
  AsPc-1 cells dead/alive: alive
AsPc-1 cells [8]; Compound 11 0.390625 μM + Gemcitabine 0.048828 μM
  AsPc-1 cells dead/alive: alive
AsPc-1 cells [8]; Compound 11 0.390625 μM + Gemcitabine 0.097656 μM
  AsPc-1 cells dead/alive: dead
AsPc-1 cells [8]; Compound 11 0.390625 μM + Gemcitabine 0.195313 μM
  AsPc-1 cells dead/alive: dead
AsPc-1 cells [8]; Compound 11 0.390625 μM + Gemcitabine 0.390625 μM
  AsPc-1 cells dead/alive: dead
AsPc-1 cells [8]; Compound 11 0.78125 μM + Gemcitabine 0.024414 μM
  AsPc-1 cells dead/alive: alive
AsPc-1 cells [8]; Compound 11 0.78125 μM + Gemcitabine 0.048828 μM
  AsPc-1 cells dead/alive: alive
AsPc-1 cells [8]; Compound 11 0.78125 μM + Gemcitabine 0.097656 μM
  AsPc-1 cells dead/alive: dead
AsPc-1 cells [8]; Compound 11 0.78125 μM + Gemcitabine 0.195313 μM
  AsPc-1 cells dead/alive: dead
AsPc-1 cells [8]; Compound 11 0.78125 μM + Gemcitabine 0.390625 μM
  AsPc-1 cells dead/alive: dead
AsPc-1 cells [8]; Entry 1: A 11 CA […] + B Gemcitabine CB 0.37 μM
  Σ FIC: 0.3
AsPc-1 cells [8]; Entry 2: A 11 CA 0.22 μM + B Gemcitabine CB 0.37 μM
  Σ FIC: 0.47
AsPc-1 cells [8]; [10]
  IC50: 0.98 µM
AsPc-1 cells [8]; as low as, 11 together with Gemcitabine
  Concentration in combination resulting in AsPc-1 cell death: 0.0488 µM
AsPc-1 cells [8]; both combinations tested
  Effect of combination of 11 and Gemcitabine: synergistic effect
AsPc-1 cells [9]
  AsPc-1 cell viability: Nearly all AsPc-1 cells were killed
